Assay results: PubChem BioAssay (NCI)
Several values for one entry are separate records, joined by “and”; a condition that tells them apart may be missing. Equal values may be shown once.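 1) Cells in 96-well plates. 2) Compound, 48 h, 5 concentrations. 3) Linear interpolation between surrounding doses. 4) Unreached endpoint = highest concentration. Abbreviation: GI50, concentration required for 50% inhibition of growth. Definition used: TGI = concentration required for complete inhibition of growth.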

Columns and labels:
Experiment in all cases: DTP human tumour cell line panel, 48 h
A549 NSCLC = test system: A549 NSCLC
HL-60(TB) leukemia = test system: HL-60(TB) leukemia
K-562 leukemia = test system: K-562 leukemia
KM12 colon = test system: KM12 colon
MDA-MB-231 breast = test system: MDA-MB-231 breast
RPMI-8226 leukemia = test system: RPMI-8226 leukemia
SK-MEL-5 melanoma = test system: SK-MEL-5 melanoma
SNB-75 CNS = test system: SNB-75 CNS

Structure (SMILES): BrC(Br)(Br)c1cnc2ccccc2n1
- GI50 (A549 NSCLC): 1.75 µM
- TGI (A549 NSCLC): 4.66 µM
- GI50 (HL-60(TB) leukemia): 1.97 µM
- TGI (HL-60(TB) leukemia): 4.16 µM
- GI50 (K-562 leukemia): 1.12 µM
- TGI (K-562 leukemia): 3.55 µM
- GI50 (KM12 colon): 2.37 µM
- TGI (KM12 colon): 7.7 µM
- GI50 (MDA-MB-231 breast): 1.39 µM
- TGI (MDA-MB-231 breast): 3.22 µM
- GI50 (RPMI-8226 leukemia): 2.18 µM
- TGI (RPMI-8226 leukemia): 6.02 µM
- GI50 (SK-MEL-5 melanoma): 2.32 µM
- TGI (SK-MEL-5 melanoma): 7.54 µM
- GI50 (SNB-75 CNS): 2.94 µM
- TGI (SNB-75 CNS): 13.2 µM

Structure (SMILES): C=CC[Se]C(=O)Cc1c(C)n(C(=O)c2ccc(Cl)cc2)c2ccc(OC)cc12
- GI50 (A549 NSCLC): 1.62 µM
- TGI (A549 NSCLC): 6.18 µM
- GI50 (HL-60(TB) leukemia): 2.26 µM
- TGI (HL-60(TB) leukemia): 5.56 µM
- GI50 (K-562 leukemia): 3.22 µM
- TGI (K-562 leukemia): 19.2 µM
- GI50 (KM12 colon): 1.53 µM
- TGI (KM12 colon): 3.42 µM
- GI50 (MDA-MB-231 breast): 1.66 µM
- TGI (MDA-MB-231 breast): 3.21 µM
- GI50 (RPMI-8226 leukemia): 2.28 µM
- TGI (RPMI-8226 leukemia): 5.86 µM
- GI50 (SK-MEL-5 melanoma): 1.73 µM
- TGI (SK-MEL-5 melanoma): 3.13 µM
- GI50 (SNB-75 CNS): 1.48 µM
- TGI (SNB-75 CNS): 2.81 µM

Structure (SMILES): O=C(O)c1ccc(S(=O)(=O)N=Nc2c(O)[nH]c3ccccc23)cc1
- TGI (A549 NSCLC): > 100 µM
- TGI (HL-60(TB) leukemia): > 100 µM
- TGI (K-562 leukemia): > 100 µM
- TGI (KM12 colon): > 100 µM
- TGI (MDA-MB-231 breast): > 100 µM
- TGI (RPMI-8226 leukemia): > 100 µM
- TGI (SK-MEL-5 melanoma): > 100 µM
- TGI (SNB-75 CNS): > 100 µM

Structure (SMILES): COc1cccc2c1cc([N+](=O)[O-])c1c(C(=O)O)cc3c(c12)OCO3
- GI50 (A549 NSCLC): 25.8 µM
- TGI (A549 NSCLC): > 100 µM
- GI50 (HL-60(TB) leukemia): 35.1 µM
- TGI (HL-60(TB) leukemia): > 100 µM and 51.5 µM
- GI50 (K-562 leukemia): 46.3 µM
- TGI (K-562 leukemia): > 100 µM
- GI50 (KM12 colon): 24.5 µM
- TGI (KM12 colon): > 87.2 µM
- GI50 (MDA-MB-231 breast): 59.9 µM
- TGI (MDA-MB-231 breast): > 100 µM
- GI50 (RPMI-8226 leukemia): 37.1 µM
- TGI (RPMI-8226 leukemia): > 100 µM
- GI50 (SK-MEL-5 melanoma): 22.3 µM
- TGI (SK-MEL-5 melanoma): 72.2 µM and > 100 µM
- GI50 (SNB-75 CNS): 36 µM
- TGI (SNB-75 CNS): > 100 µM

Structure (SMILES): CCOC(=O)c1c(C)n(CC(C)C)c2c1cc1oc(=O)c(=O)n3cnc2c13
- GI50 (A549 NSCLC): 15.7 µM
- TGI (A549 NSCLC): > 50 µM
- GI50 (HL-60(TB) leukemia): 11.5 µM
- TGI (HL-60(TB) leukemia): 36.4 µM
- GI50 (K-562 leukemia): 16.1 µM
- TGI (K-562 leukemia): > 50 µM
- GI50 (KM12 colon): 13.6 µM
- TGI (KM12 colon): 38.3 µM
- GI50 (MDA-MB-231 breast): 8.18 µM
- TGI (MDA-MB-231 breast): 22.1 µM
- GI50 (RPMI-8226 leukemia): 15.8 µM
- TGI (RPMI-8226 leukemia): 37.2 µM
- GI50 (SK-MEL-5 melanoma): 10.1 µM
- TGI (SK-MEL-5 melanoma): 19.8 µM
- GI50 (SNB-75 CNS): 12.5 µM
- TGI (SNB-75 CNS): > 50 µM

Structure (SMILES): CCCC(=O)NC(c1ccc2c(c1)OCO2)c1ccc2cccnc2c1O (stereo not drawn)
- GI50 (A549 NSCLC): 2.27 µM
- TGI (A549 NSCLC): > 100 µM
- GI50 (HL-60(TB) leukemia): 0.317 µM
- TGI (HL-60(TB) leukemia): 4.76 µM
- GI50 (K-562 leukemia): 0.976 µM
- TGI (K-562 leukemia): > 100 µM
- GI50 (KM12 colon): 2.09 µM
- TGI (KM12 colon): > 100 µM
- GI50 (MDA-MB-231 breast): 1.64 µM
- TGI (MDA-MB-231 breast): > 100 µM
- GI50 (RPMI-8226 leukemia): 1.03 µM
- TGI (RPMI-8226 leukemia): 27.8 µM
- GI50 (SK-MEL-5 melanoma): 1.74 µM
- TGI (SK-MEL-5 melanoma): 3.9 µM
- GI50 (SNB-75 CNS): 2.18 µM
- TGI (SNB-75 CNS): 73 µM
